Test [1] deals with MDA-MB-231 cells. The test can be described thus: MTT cytotoxicity assay on MDA-MB-231 cells. It counts as cell-based, human. An excerpt:
(§1) Vero cells are known for their ability to assess the safety of new compounds and their sensitivity to a wide range of toxic substances. MDA-MB-231 cells are derived from human […] breast cancer tissue. MDA-MB-231 cells provide a reliable method for assessing the toxicity and effectiveness of potential anticancer compounds, especially those that target estrogen receptors or associated pathways. We assessed the anticancer activity of the compounds on Vero cells and MDA-MB-231 using the MTT (3-(4,5-dimethyl thiazol-2yl)-2,5-diphenyl tetrazolium bromide) assay. The MTT assay is one of the most commonly used for cancer drug screening. This is a basic and easy assay for cytotoxicity, and it is one of the most popular cytotoxicity assays in the research laboratory. We plated cells (1 × 10^5/well) in 96-well plates using 0.2 mL of medium per well. We carefully removed the media from the wells for the MTT assay after incubation. After two to three MEM (w/o) FCS washes, 200 µL of MTT (5 mg/mL) was added to each well. We incubated the plates for 6–7 h in a 5% CO^2 incubator to test for cytotoxicity. Following the incubation, we added […] of vehicle (DMSO) to each well, mixed it thoroughly with a micropipette, and left it for 45 s. NADPH-dependent dehydrogenase catalyzes the conversion of tetrazolium salt (MTT) into a purple formazan product in cells. This indicates the presence of metabolically active cells. We placed the solution in the spectrophotometer’s cuvette and recorded the optical density at 595 nm, using DMSO as the blank reference. Measurements were conducted, and the concentration required for 50% inhibition of viability (IC50) was visually determined. A standard graph was constructed, with the drug concentration plotted on the X-axis and relative cell viability on the Y-axis. %Cell Viability=Mean Optical Density of Individual Sample/Mean Optical Density of Control×100

A further test deals with Vero cells. Nature of the test: MTT cytotoxicity assay on Vero cells. It counts as cell-based.
Source text: as §1
(Formazan colour is commonly taken as a measure of viable cells.)

The next test relates to Cyclin D1. Nature of the test: RT-qPCR gene expression of Cyclin D1 (ΔΔCt method, GAPDH reference) in MDA-MB-231 cells. Type of test: cell-based, human. The settings on record: for Cyclin D1 ΔΔCt: versus cell control. The source says: (§2) To determine whether the synthesized compounds were repressing the ER alpha protein or not, we performed gene expression analyses for Cyclin D1 and BCL2 using the real-time quantitative polymerase chain reaction (RT-qPCR). RT-qPCR is an efficient, simple, and low-cost technique to quantify gene expression levels. The delta-delta Ct (ΔΔCt) method is a widely used technique for analyzing real-time quantitative PCR (qPCR) data. We chose three compounds, 9b, 9l, and 9m, based on their lowest IC50 values and conducted gene expression studies for BCL2 and Cyclin D1. We used the GAPDH as a reference gene. We chose primer pairings with the lowest penalty value designed by the Primer Express 2.0 software to obtain the best results.
A 100-picomolar primer stock was prepared utilizing primers of Cyclin D1, BCL2, and GAPDH (Table 6), which were then diluted to a 10-picomolar working stock for use in real-time PCR. RNA was extracted from four samples utilizing the PureLink RNA Mini Kit and quantified using the Biophotometer Plus (Table 3). A total of 1 µg of RNA was taken from the isolated RNA and used for cDNA synthesis with the Takara Prime Script 1st Strand cDNA Synthesis Kit. Each real-time PCR experiment utilized 25 ng of cDNA, 10 picomolar forward and reverse primers, and a final reaction volume of 20 µL. Cyclin D1, BCL2, and GAPDH average Ct values were extracted from each sample’s replicates. Then, using the formula below (1), we determined the ΔCt from the mean Ct values of Cyclin D1 and BCL2 with reference to the reference gene’s GAPDH mean Ct values. In the real-time qPCR, the temperature was set at 95 °C for 10 min (denaturation), then 40 cycles at 95 °C for 15 s and 60 °C for one minute. Each sample was processed in triplicate in six-well plates for the qPCR analysis using the Qiagen kit. The comparative Ct was used for quantification analysis, and the Ct values (Ct1, Ct2, and Ct3) were averaged.ΔCt = Ct (gene of interest) − Ct (housekeeping gene)(1)
We calculated the ΔΔCt from the ΔCt values of the Cyclin D1 and BCL2. The […] were calculated using the following Formula (2).ΔΔCt = ΔCt (Sample) − ΔCt (Control)(2)
Finally, we calculated the fold gene expression for CyclinD1 and BCL2 with reference to the reference gene GAPDH using the following Formula (3) (Table 5).Fold gene expression = 2^−ΔΔCt(3)
(In general: Real-time PCR tracks product formation cycle by cycle.)

For the next test, the system named is BCL2. The test can be described thus: RT-qPCR gene expression of BCL2 (ΔΔCt method, GAPDH reference) in MDA-MB-231 cells. Type of test: cell-based, human. The following applies: versus cell control.
Source text: as §2, with “We chose primer pairings with the lowest penalty value designed by the Primer Express 2.0 software to obtain the best results.” left out
A 100-picomolar primer stock was prepared utilizing primers of Cyclin D1, BCL2, and GAPDH (Table 6), which were then diluted to a 10-picomolar working stock for use in real-time PCR. RNA was extracted from four samples utilizing the PureLink RNA Mini Kit and quantified using the Biophotometer Plus (Table 3). […] Then, using the formula below (1), we determined the ΔCt from the mean Ct values of Cyclin D1 and BCL2 with reference to the reference gene’s GAPDH mean Ct values. […] The comparative Ct was used for quantification analysis, and the Ct values (Ct1, Ct2, and Ct3) were averaged.ΔCt = Ct (gene of interest) − Ct (housekeeping gene)(1)
We calculated the ΔΔCt from the ΔCt values of the Cyclin D1 and BCL2. […]

Test [2] deals with MDA-MB-231 cells. Set-up: method as in PMID 24278556. The settings on record: reference drug, reported value; cited from earlier work.

Where two headings read alike, the source gives them in different places.

As usually defined, the IC50 is the concentration needed to halve the response being measured.

With `Cc1c/c(=N\NC(=S)/N=C/c2ccc(Cl)cc2Cl)oc2cc(O)ccc12` [Compound 7a], the IC50 in the test with MDA-MB-231 cells [1] stood at 357 µM; in the test with Vero cells, 513 µM.

With `Oc1c/c(=N\NC(=S)/N=C/c2ccc(Cl)cc2)oc2ccccc12` [Compound 9b], the “Relative gene expression CyclinD1” value with Cyclin D1 (control = 1) was determined as 1.485. Moreover, the “Cyclin D1 2^(−ΔΔCt)” value in the test with Cyclin D1 (fold gene expression) was 1.485. Moreover, the “Cyclin D1 ΔΔCt” value in the test with Cyclin D1 was −0.57. Further, the “BCL2 ΔΔCt” value with BCL2 was determined as 1.42. Besides, the values for the IC50 with MDA-MB-231 cells [1] (Homo sapiens) and in the test on Vero cells (Chlorocebus sabaeus) were 14.5 µM and 60.9 µM, respectively.

For `COc1ccc(/C=N/C(=S)N/N=c2\cc(C)c3ccc(O)cc3o2)cc1` [Compound 7i], the values for the IC50 in the test with MDA-MB-231 cells [1] and with Vero cells were 237 µM and 292 µM, respectively.

For the molecule `Oc1cc(/C=N/C(=S)N/N=c2\cc(O)c3ccccc3o2)cc(O)c1O` [Compound 9n], the IC50 in the test with MDA-MB-231 cells [1] worked out at 47.7 µM; in the test on Vero cells it was 119 µM.

Take `Cc1c/c(=N\NC(=S)/N=C/c2ccc(Br)cc2)oc2cc(O)ccc12` [Compound 7m]: the IC50 amounted to 90.5 µM with MDA-MB-231 cells [1] and 149 µM with Vero cells.

With `O=[N+]([O-])c1ccc(/C=N/C(=S)N/N=c2\cc(O)c3ccccc3o2)cc1` [Compound 9l], the “Cyclin D1 ΔΔCt” value in the test on Cyclin D1 turned out to be 2.2. For the same molecule, the IC50 turned out to be 35.1 µM in the test with MDA-MB-231 cells [1] (Homo sapiens) and 87.7 µM in the test with Vero cells (Chlorocebus sabaeus).

As for `Oc1c/c(=N\NC(=S)/N=C/c2ccc(Br)cc2)oc2ccccc12` [Compound 9m], in the test with Cyclin D1, the “Cyclin D1 ΔΔCt” value is given as 2.03. Further, the “BCL2 ΔΔCt” value in the test with BCL2 was 1.41. Besides, the values for the IC50 in the test on MDA-MB-231 cells [1] (Homo sapiens) and in the test on Vero cells (Chlorocebus sabaeus) were 42.1 µM and 68.7 µM, respectively.

In the case of `Oc1c/c(=N\NC(=S)/N=C/c2cccc3ccccc23)oc2ccccc12` [Compound 9c], the values for the IC50 in the test on MDA-MB-231 cells [1] and with Vero cells were 61.5 µM and 87.4 µM, respectively.

Turning to `O=C(c1ccc(OCCN2CCCCC2)cc1)c1c(-c2ccc(O)cc2)sc2cc(O)ccc12` [Raloxifene], the IC50 in the test on MDA-MB-231 cells [2] is 13.7 µM.

(Values after article PMC12028564, “A New Class of BRCA1 Mimetics for ERα-Positive Breast Cancer Therapy: Design, Synthesis, In Silico Screening, In Vitro Assay, and Gene Expression Analysis” (Life, 2025).)
